Here are results for 1 molecule from patent publication US20260130857A1, “SUSTAINED-RELEASE INJECTABLE COMPOSITION FOR TREATING OR PREVENTING INFLAMMATORY DISEASE, AND METHOD FOR PREPARING SAME” (INVENTAGE LAB INC., priority 2022, published 2026).

Data set [1] can be described thus: Rat pharmacokinetic test, single subcutaneous injection. Details: species or system SD rats. The following applies: male, SD, in vivo, CBD solution 300 μg/head, IVL5005 9 mg/head, rat serum, read-out: blood CBD concentration. From the text:
The experimental conditions for conducting the rat pharmacokinetic test are as follows:
CBD isolate solution was used as a control. As experimental animals, 6-week-old male SD rats were purchased from Coretech, acclimated for a week, and then tested. The experimental diet was a general feed for experimental animals (Orient), and the rats were raised with free access to water and feed.
At a total of 14 time points, including time 0 (before SC administration of the test substance to the acclimated rats) and 4 hr, 8 hr, 24 hr, 3 d, 5 d, 1 w, 2 w, 4 w, 6 w, 8 w, and 12 w after SC administration of the test substance, 500 to 1,000 μL of blood was sampled from the jugular vein at each time point, and then immediately, the blood was centrifuged at 1,000 g for 10 minutes to separate the serum, which was then frozen and stored at −70° C.

A short description of data set [2]: Body weight measurement in MIA-induced osteoarthritis trial. The format is in vivo. Particulars: MIA rats, single IA dose: CBD solution 300 ug/joint, Examples 2 and 4 2 mg/joint, Example 3 1 mg/joint; test period. As for the experimental part: (§1) After acclimatization, rats were divided into groups, and the area around the left lower limb knee joint of each rate was shaved clean. Then, MIA (monosodium iodoacetate, Sigma, USA), an osteoarthritis-inducing substance, was prepared at a concentration of 60 mg/mL in 0.9% sterile saline and 50 μL was administered intra-articularly to each rat using a BD Ultra-Fine™ II Insulin Syringe. The right knee joint was administered only the same volume of 0.9% sterile saline. Two weeks after MIA administration, the test substances shown in Table 5 below were administered intra-articularly, and the therapeutic efficacy thereof was evaluated.
(§2) CBD solution and Examples 2 to 4 were each administered to the left knee joint cavity 14 days after MIA administration, and only the same amount of 0.9% sterile saline was administered to the right knee joint. The normal control and positive control groups were also administered the same amount of 0.9% saline.
However, when CBD was administered, it was confirmed that the body weight gain increased compared to that in the positive control as feed intake activity was improved due to a decrease in pain. This tendency was particularly significant in Examples 3 and 4.

Data set [3] concerns MIA-OA model. As to the kind of experiment: Paw withdrawal threshold test in osteoarthritis model. The format is in vivo, rats. Particulars: thereafter (later than 2 hours after administration). As for the experimental part: as §1, with “evaluated. […]” for “evaluated.”
The paw withdrawal response was measured before MIA administration (day 0) and 7 days and 14 days after MIA administration (before test drug administration), and the paw withdrawal response was evaluated after applying mechanical stimulation using an electronic von-Frey aesthesiometer (IITC Life Science, USA) 2 hours, 4 hours, 4 days, 7 days, 11 days, 14 days, 21 days, and 28 days after test drug administration. […] In the measurement method, an electronic von-Frey filament was applied perpendicular to the sole of the paw, the threshold (g force) value at which a rapid withdrawal response occurred was measured. The measurement results were analyzed as the ratio of g forces measured on the left and right paws (left/right). […]

In data set [4] the test system is MIA-OA model. As to the kind of experiment: Trial for treatment of osteoarthritis (OA): weight-bearing and paw withdrawal tests taken together. The format is in vivo, rats. The method, then: as §1, §2

Turning to `C=C(C)[C@@H]1CCC(C)=C[C@H]1c1c(O)cc(CCCCC)cc1O` [CBD solution, Cannabidiol], the concentration at 1 w in data set [1] (1 w after single SC) was 361 ng/mL. The concentration at 2 w in data set [1] (2 w after single SC) was 0 ng/mL. The concentration at 4 w in data set [1] (4 w after single SC) was found to be 0 ng/mL. Also, the concentration at 7 w in data set [1] (7 w after single SC) was determined as 0 ng/mL. For the same molecule, the concentration at 1 d in data set [1] (1 d after single SC) was 3940 ng/mL. Also, in data set [2], the “body weight gain compared to positive control group” value is “tended to increase”. In the data set on MIA-OA model [3], the “paw withdrawal threshold ratio compared to control group” value was “no difference”. Further, the “therapeutic effect compared to the PC group” value with MIA-OA model [4] (after the early stage / long term (to day 28)) is “no difference from the PC group”; in the data set on MIA-OA model [4] (early stage of administration), “showed an effect”.
